Test results taken from ChEMBL document CHEMBL4359811, “Development of Potent and Selective Pyrazolopyrimidine IRAK4 Inhibitors” (J Med Chem, 2019).

Assays:
[1] = AUC (infinity) in monkey at 1 mg/kg, po; type: ADME, organism-based, Macaca mulatta; parameters: dose 1 mg/kg, time infinity, route oral; conditions: rhesus monkey, in vivo
[2] = Half-life in mouse at 300 mg/kg, po administered as suspension in MCT; type: ADME, organism-based; conditions: in vivo
[3] = Volume of distribution at steady state in dog at 0.3 mg/kg, iv; type: ADME, organism-based, Canis lupus familiaris; conditions: in vivo, read-out: Vdss
[4] = Drug concentration in CpG ODN 1826 induced C57BL/6 mouse plasma at 1 to 100 mg/kg, po treated 1 hr prior to CpG ODN 1826 stimulation and measured after 1 hr by MSD assay; type: ADME, organism-based; conditions: in vivo
[5] = Half-life in mouse at 300 mg/kg, po administered as suspension in 10% captisol; type: ADME, organism-based; conditions: in vivo
[6] = Cmax in dog at 1 mg/kg, po; type: ADME, organism-based, Canis lupus familiaris; parameters: dose 1 mg/kg, route oral; conditions: in vivo
[7] = AUC (infinity) in mouse at 100 mg/kg, po administered as suspension in 10% captisol; type: ADME, organism-based; parameters: dose 100 mg/kg, route oral, time infinity; conditions: in vivo
Mus musculus [8] = test: In vivo inhibition of IRAK4 in CpG ODN 1826 induced C57BL/6 mouse assessed as blockade of TLR9 signalling by measuring TNFalpha levels at 1 mg/kg, po treated 1 hr prior to CpG ODN 1826 stimulation and measured after 1 hr by MSD assay; type: functional; parameters: scale not given: the % may be the effect or the level left
[9] = Plasma clearance in mouse at 1 mg/kg, iv; type: ADME, organism-based
Mus musculus [10] = test: In vivo inhibition of IRAK4 in CpG ODN 1826 induced C57BL/6 mouse assessed as blockade of TLR9 signalling by measuring IL-6 levels at 10 mg/kg, po treated 1 hr prior to CpG ODN 1826 stimulation and measured after 1 hr by MSD assay; type: functional; parameters: scale not given: the % may be the effect or the level left
[11] = Protein binding in dog plasma at 5 uM incubated for 4 hrs by LC-MS/MS analysis; type: ADME, cell-free, Canis lupus familiaris; conditions: read-out: PPB (converted)
[12] = AUC (infinity) in dog at 1 mg/kg, po; type: ADME, organism-based, Canis lupus familiaris; parameters: dose 1 mg/kg, time infinity, route oral; conditions: in vivo
[13] = Volume of distribution at steady state in monkey at 1 mg/kg, iv; type: ADME, organism-based, Macaca mulatta; conditions: rhesus monkey, in vivo, read-out: Vdss
[14] = Cmax in mouse at 300 mg/kg, po administered as suspension in 10% captisol; type: ADME, organism-based; parameters: dose 300 mg/kg, route oral; conditions: in vivo
[15] = Plasma clearance in rat at 1 mg/kg, iv; type: ADME, organism-based
[16] = Apparent permeability from apical to basolateral side in MDCK cells at 10 uM incubated for 180 mins and measured up to 180 min by LC-MS/MS analysis; type: ADME, cell-based, Canis lupus familiaris; conditions: dog
[17] = AUC (infinity) in mouse at 300 mg/kg, po administered as suspension in MCT; type: ADME, organism-based; parameters: dose 300 mg/kg, route oral, time infinity; conditions: in vivo
[18] = AUC (infinity) in mouse at 30 mg/kg, po; type: ADME, organism-based; parameters: dose 30 mg/kg, time infinity, route oral; conditions: in vivo
[19] = Oral bioavailability in monkey at 1 mg/kg; type: ADME, organism-based, Macaca mulatta; conditions: rhesus monkey, in vivo
[20] = AUC (infinity) in mouse at 100 mg/kg, po administered as suspension in MCT; type: ADME, organism-based; parameters: dose 100 mg/kg, time infinity, route oral; conditions: in vivo
Mus musculus [21] = test: In vivo inhibition of IRAK4 in CpG ODN 1826 induced C57BL/6 mouse assessed as blockade of TLR9 signalling by measuring TNFalpha levels at 3 mg/kg, po treated 1 hr prior to CpG ODN 1826 stimulation and measured after 1 hr by MSD assay; type: functional; parameters: scale not given: the % may be the effect or the level left
[22] = Oral bioavailability in dog at 1 mg/kg; type: ADME, organism-based, Canis lupus familiaris; conditions: in vivo
Mus musculus [23] = test: In vivo inhibition of IRAK4 in CpG ODN 1826 induced C57BL/6 mouse assessed as blockade of TLR9 signalling by measuring TNFalpha levels at 10 mg/kg, po treated 1 hr prior to CpG ODN 1826 stimulation and measured after 1 hr by MSD assay; type: functional; parameters: scale not given: the % may be the effect or the level left
[24] = Half-life in mouse at 10 mg/kg, po; type: ADME, organism-based; conditions: in vivo
[25] = Protein binding in human plasma at 5 uM incubated for 4 hrs by LC-MS/MS analysis; type: ADME, cell-free; conditions: read-out: PPB (converted)
[26] = Cmax in rat at 1 mg/kg, po; type: ADME, organism-based; parameters: dose 1 mg/kg, route oral; conditions: in vivo
Mus musculus [27] = test: In vivo inhibition of IRAK4 in CpG ODN 1826 induced C57BL/6 mouse assessed as blockade of TLR9 signalling by measuring TNFalpha levels at 100 mg/kg, po treated 1 hr prior to CpG ODN 1826 stimulation and measured after 1 hr by MSD assay; type: functional; parameters: scale not given: the % may be the effect or the level left
[28] = Volume of distribution at steady state in mouse at 1 mg/kg, iv; type: ADME, organism-based; conditions: in vivo, read-out: Vdss
[29] = Oral bioavailability in mouse at 300 mg/kg administered as suspension in 10% captisol; type: ADME, organism-based; conditions: in vivo
Mus musculus [30] = test: In vivo inhibition of IRAK4 in CpG ODN 1826 induced C57BL/6 mouse assessed as blockade of TLR9 signalling by measuring TNFalpha levels at 30 mg/kg, po treated 1 hr prior to CpG ODN 1826 stimulation and measured after 1 hr by MSD assay; type: functional; parameters: scale not given: the % may be the effect or the level left
[31] = Cmax in mouse at 300 mg/kg, po administered as suspension in MCT; type: ADME, organism-based; parameters: dose 300 mg/kg, route oral; conditions: in vivo
[32] = Half-life in mouse at 30 mg/kg, po; type: ADME, organism-based; conditions: in vivo
[33] = Protein binding in rat plasma at 5 uM incubated for 4 hrs by LC-MS/MS analysis; type: ADME, cell-free; conditions: read-out: PPB (converted)
[34] = Cmax in monkey at 1 mg/kg, po; type: ADME, organism-based, Macaca mulatta; parameters: dose 1 mg/kg, route oral; conditions: rhesus monkey, in vivo
[35] = Half-life in mouse at 100 mg/kg, po administered as suspension in MCT; type: ADME, organism-based; conditions: in vivo
[36] = Cmax in mouse at 100 mg/kg, po administered as suspension in 10% captisol; type: ADME, organism-based; parameters: dose 100 mg/kg, route oral; conditions: in vivo
[37] = Cmax in mouse at 5 mg/kg, po; type: ADME, organism-based; parameters: dose 5 mg/kg, route oral; conditions: in vivo, read-out: Cmax
[38] = Plasma clearance in monkey at 1 mg/kg, iv; type: ADME, organism-based, Macaca mulatta; conditions: rhesus monkey
[39] = Volume of distribution at steady state in rat at 1 mg/kg, iv; type: ADME, organism-based; conditions: in vivo, read-out: Vdss
[40] = Half-life in rat at 1 mg/kg, po; type: ADME, organism-based; conditions: in vivo
[41] = Half-life in mouse at 5 mg/kg, po; type: ADME, organism-based; conditions: in vivo
[42] = AUC (infinity) in mouse at 10 mg/kg, po; type: ADME, organism-based; parameters: dose 10 mg/kg, route oral, time infinity; conditions: in vivo
[43] = Oral bioavailability in rat at 1 mg/kg; type: ADME, organism-based; conditions: in vivo
[44] = Cmax in mouse at 30 mg/kg, po; type: ADME, organism-based; parameters: dose 30 mg/kg, route oral; conditions: in vivo
[45] = Half-life in dog at 1 mg/kg, po; type: ADME, organism-based, Canis lupus familiaris; conditions: in vivo
[46] = Cmax in mouse at 100 mg/kg, po administered as suspension in MCT; type: ADME, organism-based; parameters: dose 100 mg/kg, route oral; conditions: in vivo
[47] = AUC (infinity) in mouse at 5 mg/kg, po; type: ADME, organism-based; parameters: dose 5 mg/kg, route oral, time infinity; conditions: in vivo
Mus musculus [48] = test: In vivo inhibition of IRAK4 in CpG ODN 1826 induced C57BL/6 mouse assessed as blockade of TLR9 signalling by measuring IL-6 levels at 100 mg/kg, po treated 1 hr prior to CpG ODN 1826 stimulation and measured after 1 hr by MSD assay; type: functional; parameters: scale not given: the % may be the effect or the level left
[49] = AUC (infinity) in mouse at 300 mg/kg, po administered as suspension in 10% captisol; type: ADME, organism-based; parameters: dose 300 mg/kg, route oral, time infinity; conditions: in vivo
[50] = Oral bioavailability in mouse at 5 mg/kg; type: ADME, organism-based; conditions: in vivo
[51] = Half-life in mouse at 100 mg/kg, po administered as suspension in 10% captisol; type: ADME, organism-based; conditions: in vivo

C[C@]1(CO)Cc2cc(NC(=O)c3cnn4cccnc34)c(N3CCOCC3)cc2O1
AUC(0-inf) [1]: 3.3 µM·h | half-life [2]: 23.2 h | Vd [3]: 8 L/kg | Drug uptake [4]: Active | half-life [5]: 42 h | Cmax [6]: 0.2 µM | AUC(0-inf) [7]: 98 µM·h | Activity (Mus musculus [8]): 3% | clearance [9]: 3.24 L/h/kg | Activity (Mus musculus [10]): -69% | fraction unbound at 4 h, 5 µM [11]: 0.34 | AUC(0-inf) [12]: 1.4 µM·h | Vd [13]: 4.4 L/kg | Cmax [14]: 14 µM | clearance [15]: 0.396 L/h/kg | Papp A→B at 3 h, 10 µM [16]: 150 nm/s | AUC(0-inf) [17]: 63 µM·h | AUC(0-inf) [18]: 17 µM·h | bioavailability [19]: 85% | AUC(0-inf) [20]: 15.1 µM·h | Activity (Mus musculus [21]): -18% | bioavailability [22]: 30% | Activity (Mus musculus [23]): -39% | half-life [24]: 1.3 h | fraction unbound at 4 h, 5 µM [25]: 0.44 | Cmax [26]: 0.4 µM | Activity (Mus musculus [27]): -89% | Vd [28]: 1.1 L/kg | bioavailability [29]: 33% | Activity (Mus musculus [30]): -79% | Cmax [31]: 10 µM | half-life [32]: 1.3 h | fraction unbound at 4 h, 5 µM [33]: 0.21 | Cmax [34]: 0.3 µM | half-life [35]: 1.6 h | Cmax [36]: 9.7 µM | Cmax [37]: 2.1 µM | clearance [38]: 0.66 L/h/kg | Vd [39]: 2.3 L/kg | half-life [40]: 3.8 h | half-life [41]: 0.5 h | AUC(0-inf) [42]: 10 µM·h | bioavailability [43]: 42% | Cmax [44]: 7.2 µM | half-life [45]: 1.7 h | Cmax [46]: 4.8 µM | AUC(0-inf) [47]: 2.3 µM·h | Activity (Mus musculus [48]): -91% | AUC(0-inf) [49]: 340 µM·h | bioavailability [50]: 59% | half-life [51]: 3.3 h
